ChEMBL document CHEMBL1124729, “Plant antitumor agents. 29. Synthesis and biological activity of ring D and ring E modified analogues of camptothecin” (1990)
≈ marks a conversion by molar mass, not a printed value. Calls of active or inactive are those of the source. The rule behind the calls is not given here.

Key:
[1] = test system: Nucleic Acid; test: The compound was tested for inhibitory activity against DNA relaxation by DNA topoisomerase I at dose 30 uM; assay type: functional
[2] = test system: Nucleic Acid; test: The compound was tested for inhibitory activity against DNA relaxation by DNA topoisomerase I at dose 100 uM; assay type: functional
[3] = (§1) The cytotoxic activity was in vitro tested by 9PS assay method; assay type: functional; conditions: Mus musculus; read-out: ED50 (the source's name)
[4] = test system: Nucleic Acid; test: The compound was tested for inhibitory activity against DNA relaxation by DNA topoisomerase I at dose 10 uM; assay type: functional
[5] = test system: P388; test: The compound was tested in vivo for life prolongation against mouse P388 tumor cells at 8 mg/kg concentration; assay type: functional
[6] = test system: KB cells (Homo sapiens); test: The cytotoxic activity in vitro by 9KB assay method; conditions: read-out: ED50 (the source's name)
[7] = species: Mus musculus; test: as §1; assay type: functional; conditions: read-out: ED50 (the source's name)
[8] = test system: L1210; test: The compound was tested in vivo for life prolongation against mouse L1210 tumor cells at 40 mg/kg concentration; Inactive; assay type: functional, organism-based; parameters: dose 40 mg/kg
[9] = test system: P388; test: The compound was tested in vivo for life prolongation against mouse P388 tumor cells at 40 mg/kg concentration; No toxicity; assay type: functional, organism-based; parameters: dose 40 mg/kg
[10] = test system: Nucleic Acid; test: The compound was tested for inhibitory activity against DNA relaxation by DNA topoisomerase I at dose 10-30 uM; Inactive; assay type: functional
[11] = test system: L1210; test: The compound was tested in vivo for life prolongation against mouse L1210 tumor cells at 4 mg/kg concentration; assay type: functional
[12] = test system: P388; test: The compound was tested in vivo for life prolongation against mouse P388 tumor cells at 4 mg/kg concentration; assay type: functional
[13] = The cytotoxic activity was in vitro tested by 9PS assay method.; assay type: functional; conditions: Mus musculus; read-out: ED50 (the source's name)
[14] = species: Mus musculus; test: The cytotoxic activity in vitro by 9KB assay method.; assay type: functional; conditions: read-out: ED50 (the source's name)
[15] = test system: L1210; test: The compound was tested in vivo for life prolongation against mouse L1210 tumor cells at 30 mg/kg concentration; Inactive; assay type: functional, organism-based; parameters: dose 30 mg/kg
[16] = test system: L1210 (Mus musculus); test: The compound was tested in vivo for life prolongation against mouse L1210 tumor cells at 30 mg/kg concentration; Nontoxic
[17] = test system: L1210; test: The compound was tested in vivo for life prolongation against mouse L1210 tumor cells at 80 mg/kg concentration; Inactive; assay type: functional, organism-based; parameters: dose 80 mg/kg
[18] = test system: L1210 (Mus musculus); test: The compound was tested in vivo for life prolongation against mouse L1210 tumor cells at 80 mg/kg concentration; No toxicity

Row | SMILES | inhibition [1] | EC50 [6] | EC50 [7] | inhibition [10] | further results
1 | CCC1(O)C(=O)OCc2c1cc1n(c2=O)Cc2cc3ccccc3nc2-1 (centres undefined) | 48% | 0.03 µg/mL (≈ 0.0861 µM) | – | – | inhibition [2]: 70%; EC50 [3]: 0.04 µg/mL (≈ 0.115 µM); inhibition [4]: 39%; T/C x100 [5]: 220%
2 | CCC1(O)C(=O)OCc2c1ccc1c2-c2nc3ccccc3cc2C1 (centres undefined) | 0% | > 10 µg/mL | > 10 µg/mL | – | –
3 | CCC1(N)C(=O)OCc2c1cc1n(c2=O)Cc2cc3ccccc3nc2-1.Cl (centres undefined) | – | 1.6 µg/mL | 3.4 µg/mL | inactive | T/C x100 [8]: inactive; T/C x100 [9]: No toxicity
4 | CC[C@@]1(O)C(=O)OCc2c1cc1n(c2=O)Cc2cc3ccccc3nc2-1 [CAMPTOTHECIN] | 85% | 0.02 µg/mL (≈ 0.0574 µM) | 0.08 µg/mL (≈ 0.23 µM) | – | T/C x100 [11]: 200%; inhibition [4]: 76%; T/C x100 [12]: 199%
5 | CCC1(O)C(=O)OCc2cc3c(cc21)-c1nc2ccccc2cc1C3 (centres undefined) | 6% | – | – | – | inhibition [2]: 38%; EC50 [13]: 2.5 µg/mL (≈ 7.54 µM); EC50 [14]: 1.3 µg/mL (≈ 3.92 µM)
6 | CCC1(N=[N+]=[N-])C(=O)OCc2c1cc1n(c2=O)Cc2cc3ccccc3nc2-1 (centres undefined) | – | > 10 µg/mL | > 10 µg/mL | inactive | T/C x100 [15]: inactive; T/C x100 [16]: Non-toxic
7 | CC[C@@]1(O)C(=O)NCc2c1cc1n(c2=O)Cc2cc3ccccc3nc2-1 | – | > 10 µg/mL | 3 µg/mL (≈ 8.64 µM) | inactive | T/C x100 [17]: inactive; T/C x100 [18]: No toxicity
